For the assay, the target named is T1, Lipoprotein lipase (LPL) (Bos taurus, UniProt P11151).
T1 construct: Dr. Gunilla Olivecrona, Umea University (gift)
T1 sequence (P11151 29-478): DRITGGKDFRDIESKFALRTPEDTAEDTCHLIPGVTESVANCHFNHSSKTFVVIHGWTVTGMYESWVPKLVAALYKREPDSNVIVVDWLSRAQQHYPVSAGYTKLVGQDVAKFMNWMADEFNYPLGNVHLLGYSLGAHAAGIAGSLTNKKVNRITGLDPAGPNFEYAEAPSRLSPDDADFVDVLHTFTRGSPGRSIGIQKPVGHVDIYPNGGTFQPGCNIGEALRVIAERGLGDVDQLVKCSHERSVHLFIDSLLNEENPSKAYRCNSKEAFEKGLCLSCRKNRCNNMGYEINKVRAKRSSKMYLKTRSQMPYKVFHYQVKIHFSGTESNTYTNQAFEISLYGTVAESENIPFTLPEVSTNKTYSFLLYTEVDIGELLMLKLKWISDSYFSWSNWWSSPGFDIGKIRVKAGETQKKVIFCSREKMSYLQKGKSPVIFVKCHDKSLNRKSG
Kind of assay: Lipoprotein lipase (LPL) inhibition assay, 3H-triolein/intralipid substrate. Format: biochemical. The settings on record: read-out: LPL inhibition (% inh. at 50 μM). The text has this:
Lipoprotein Lipase (LPL) [Classified as EC 3.1.1.34 in accordance with the Recommendations of the Nomenclature Committee of the International Union of Biochemistry and Molecular Biology (available on the World Wide Web at the following address: http://www.chem.qmw.ac.uk/iubmb/enzyme/)]
Materials. The lipoprotein lipase employed was obtained from Dr. Gunilla Olivecrona of Umea University, Sweden. ^3H-triolein (TO) from Amersham, Buckinghamshire, U.K., cat No. TRA191; 5-20 Ci/mmol dissolved in toluene. Intralipid is from Kabi-Fresenius). Apo CII was obtained from PMSF-treated plasma from overnight fasted rats. All other reagents are of commercial grade and obtained from various commercial sources.
Methods. The preparation of the substrate is as follows:
25 μl of ^3H-Triolein evaporated under a gentle stream of N2 in a 27° C. room in 4 ml chromacol glass followed by the addition of 1 ml 10% intralipid. This is mixed and sonicated on ice for 5 minutes (50% pulse mode). This can be kept for 1 week at 4° C.
100 μl assay medium (0.3M Tris-Cl, 0.2M NaCl, 0.2 mg heparin/ml and 120 mg BSA/ml (fraction V, Sigma no. 3401, pH 8.5))
All mixed in a 13×100 mm glass tube and incubated for at least 5 minutes.
2. Add 5 μl LPL (of a solution containing 500 mU/mg)
Mix and incubate for 30 minutes at 25° C.
3. The reaction is stopped with 3.25 ml of a solution containing Methanol:chloroform:heptan 10:9:7. Add 1.05 ml buffer (100 mM Boric acid, 100 mM potassium carbonate pH 10.5) and mix 10 seconds per vial.
5. Take 1 ml of the upper phase+10 ml scintillation fluid and mix
6. Scintillation count for 5 minutes per vial.

Broadly, the inhibition is how much of the control response was suppressed.

Turning to `O=C(NN1CCc2ccccc2C1)Oc1ccc(Cl)cc1` [Example 6, (3,4-Dihydro-1H-isoquinolin-2-yl)-carbamic acid 4-chloro-phenyl Ester], the inhibition at 50 µM was 0%.

On to `CC(C)(C)OC(=O)Nc1ccc(OC(=O)NN2CCc3ccccc3C2)cc1` [Example 17, (3,4-Dihydro-1H-isoquinolin-2-yl)-carbamic Acid 4-tert-butoxycarbonylamino-phenyl Ester], for which the inhibition at 50 µM was determined as 0%.

With `CC1Cc2ccccc2CN1NC(=O)Oc1ccc(Cl)cc1` (stereo not drawn) [Example 23, (3-Methyl-3,4-dihydro-1H-isoquinolin-2-yl)-carbamic Acid 4-chloro-phenyl Ester], the inhibition at 50 µM is 4%.

The values above are taken from US20020082254A1, “Compounds for treating disorders where a decreased level of plasma FFA is desired” (priority 2000, published 2002).
